The test system of this assay is P-Y1068-EGFR. The experiment in a line: Western blot analysis of P-Y1068-EGFR in EGF-stimulated HCT15 cells treated with DGK inhibitor. In kind it is cell-based, human. Particulars: versus DMSO control, pre-incubated 30 min. As for the experimental part: Cells were plated in 6 or 10 cm dishes and starved for 2 h at 37 C in PBS. After resting, cells were EGF-stimulated for different time 3, 10 or 30 min. Cells were lysed with ice-cold 2% NP40 supplemented with protease and phosphatase inhibitors [10 mM sodium fluoride, 2 mM sodium orthovanadate, 0.5 mM EDTA, 2 mM phenyl-methylsulfonyl fluoride, 1 mM sodium molybdate, aprotonin (10 mg/ml), leupeptin (10 mg/ml), pepstatin (1 mg/ml)]. After 30 min on ice, lysates were centrifuged and supernatant were mix with 2× sample buffer. Protein lysates were separated on acrylamide gel 10%, transferred on PVDF membrane and incubated with primary antibodies of interest. Inhibitors such as Rottlerin (20 μM) and DGK were pre-incubated for 30 min before stimulation. Western blots were visualized with enhanced chemo-luminescence and imaging on a Fuji LAS 4000 image station (GE Healthcare). The protein bands in Western blots were quantified with Multi Gauge software, and densitometry (pixel intensity) was determined within the linear range of the exposure. Amounts of the proteins of interest were typically presented as a ratio of the indicated loading control. Values were then normalized to an indicated sample and noted as a fold difference. Results represent at least three independent experiments.
For orientation: A western blot detects proteins with antibodies after separation by electrophoresis.

On to `O=c1c2ccccc2[nH]c(=S)n1CCN1CCC(=C(c2ccc(F)cc2)c2ccc(F)cc2)CC1` [R59949], for which the P-Y1068-EGFR levels entry is “decreased levels”.
